Experiments:
[1] = laboratory experiments and clinical studies; cited from earlier work
Excerpt: (§1) Fishman et al. reported that in a large review of patients with culture-positive, persistent tympanostomy tube otorrhea, S. aureus accounted for 52% of the organisms cultured, of which 57% were MRSA.[20] Presently, the most commonly used antibiotic against MRSA is vancomycin. […] Although there is no emergence of VRSA in CSOM, new anti-MRSA peptides need to be studied for the prevention of VRSA or VISA. Mandal et al. reported that approximately 15% of MRSA ...

guinea pigs = details: guinea pig, in vivo; cited from earlier work
Excerpt: as §1

MRSA = experiment: Inhibition zone assay; format: cell-based, Methicillin-resistant Staphylococcus aureus; details: 37 °C overnight
Procedure: MRSA was grown overnight for 18 h at 37 °C in 10 mL of LB broth and then 10 μL of this culture was inoculated into 10 mL of fresh LB and incubated for an additional 3 h at 37 °C to obtain mid-logarithmic phase organisms. The bacterial suspension (2 × 10^5 CFU/mL in LB) was mixed with 0.7% agarose and poured into a 10 cm Petri dish. […] The diameters of the bacterial clearance zones surrounding the circle paper were measured for the quantitation of inhibitory activities.

[2] = paper disc on agarose plate, MRSA, zone size dose-dependent (Fig. 2)

CN[C@H](CC(C)C)C(=O)N[C@H]1C(=O)N[C@@H](CC(N)=O)C(=O)N[C@H]2C(=O)N[C@H]3C(=O)N[C@H](C(=O)N[C@H](C(=O)O)c4cc(O)cc(O)c4-c4cc3ccc4O)[C@H](O)c3ccc(c(Cl)c3)Oc3cc2cc(c3O[C@@H]2O[C@H](CO)[C@@H](O)[C@H](O)[C@H]2O[C@H]2C[C@](C)(N)[C@H](O)[C@H](C)O2)Oc2ccc(cc2Cl)[C@H]1O [vancomycin]
ototoxicity after vancomycin treatment [1]: did not demonstrate significant ototoxicity

daptomycin
ototoxicity after topical application (guinea pigs): no ototoxicity

KRIVQRIKKWLR-NH2 [KR-12-a2]
amount from which an inhibition zone against MRSA was produced (MRSA; 10 μL aliquots of serial dilution on ≈6 mm paper discs, MRSA 2 × 10^5 CFU/mL in LB with 0.7% agarose): 6.25 µg | amount giving the highest mean diameter of the inhibition zone (MRSA; [2]): 100 µg | amount giving the lowest mean diameter of the inhibition zone (MRSA; [2]): 6.25 µg

Reference: PMC9449155 (Brazilian Journal of Otorhinolaryngology, 2017)
